Measurements reported in the NIST ThermoML archive (doi:10.1007/s10765-007-0223-x).
Several values for one entry are separate records, joined by “and”; a condition that tells them apart may be missing. Equal values may be shown once.

Key:
[1] = xn = mol fraction of the nth substance listed; conditions: 101 kPa, Liquid; for speed of sound: Single path-length method
[2] = 101 kPa, Liquid; for speed of sound: Single path-length method

c1ccccc1 [benzene] + COC(C)(C)C
[1], x2 = 0
Conditions | mass density [kg/m3] | speed of sound [m/s]
288.15 K | 884.183 | 1345.5
290.65 K | 881.521 | 1333.4
293.15 K | 878.856 | 1321.6
295.65 K | 876.19 | 1309.9
298.15 K | 873.52 | 1298.3
300.65 K | 870.847 | 1286.7
303.15 K | 868.172 | 1275.1
305.65 K | 865.49 | 1263.6
308.15 K | 862.805 | 1252.1
310.65 K | 860.118 | 1240.7
313.15 K | 857.425 | 1229.3
315.65 K | 854.73 | 1217.9
318.15 K | 852.032 | 1206.7
320.65 K | 849.331 | 1195.5
323.15 K | 846.641 | 1184.6

Cc1ccccc1 [toluene]
[2]
Conditions | mass density [kg/m3] | speed of sound [m/s]
288.15 K | 871.457 | 1347.5
290.65 K | 869.144 | 1336.3
293.15 K | 866.823 | 1325.3
295.65 K | 864.5 | 1314.3
298.15 K | 862.173 | 1303.4
300.65 K | 859.845 | 1292.6
303.15 K | 857.513 | 1281.9
305.65 K | 855.175 | 1271.2
308.15 K | 852.838 | 1260.5
310.65 K | 850.494 | 1249.8
313.15 K | 848.146 | 1239.2
315.65 K | 845.794 | 1228.6
318.15 K | 843.437 | 1218
320.65 K | 841.075 | 1207.3
323.15 K | 838.706 | 1196.6

CC(C)CC(C)(C)C [2,2,4-trimethylpentane] + COC(C)(C)C
[1], x2 = 0
Conditions | mass density [kg/m3] | speed of sound [m/s]
288.15 K | 695.948 | 1124.3
290.65 K | 693.91 | 1113.8
293.15 K | 691.861 | 1103.3
295.65 K | 689.809 | 1092.7
298.15 K | 687.749 | 1082.2
300.65 K | 685.687 | 1071.7
303.15 K | 683.618 | 1061.3
305.65 K | 681.542 | 1050.9
308.15 K | 679.459 | 1040.5
310.65 K | 677.373 | 1030.2
313.15 K | 675.278 | 1019.9
315.65 K | 673.177 | 1009.7
318.15 K | 671.069 | 999.53
320.65 K | 668.954 | 989.37
323.15 K | 666.832 | 979.25

COC(C)(C)C [2-methoxy-2-methylpropane] + CCc1ccccc1
[1], x1 = 1
Conditions | mass density [kg/m3] | speed of sound [m/s]
288.15 K | 744.861 | 1083.4
290.65 K | 742.259 | 1071.6
293.15 K | 739.654 | 1060
295.65 K | 737.036 | 1048.5
298.15 K | 734.406 | 1036.9
300.65 K | 731.766 | 1025.4
303.15 K | 729.112 | 1013.9
305.65 K | 726.444 | 1002.4
308.15 K | 723.763 | 990.99
310.65 K | 721.069 | 979.62
313.15 K | 718.357 | 968.16
315.65 K | 715.636 | 956.8
318.15 K | 712.897 | 945.54
320.65 K | 710.141 | 934.24
323.15 K | 707.381 | 922.97

COC(C)(C)C [2-methoxy-2-methylpropane]
[2]
Conditions | mass density | speed of sound
288.15 K | 744.861 kg/m3 | 1083.4 m/s and 1082.1 m/s
290.65 K | 742.259 kg/m3 | 1071.6 m/s and 1070.6 m/s
293.15 K | 739.654 kg/m3 | 1060 m/s and 1059.1 m/s
295.65 K | 737.036 kg/m3 | 1048.5 m/s and 1047.8 m/s
298.15 K | 734.406 kg/m3 | 1036.9 m/s and 1036.6 m/s
300.65 K | 731.766 kg/m3 | 1025.4 m/s
301.65 K | 732.643 kg/m3 | 1024.3 m/s
303.15 K | 729.112 kg/m3 and 729.99 kg/m3 | 1013.9 m/s and 1014 m/s and 1012.8 m/s
305.65 K | 727.325 kg/m3 and 726.444 kg/m3 | 1002.4 m/s and 1002.7 m/s and 1001.4 m/s
308.15 K | 723.763 kg/m3 and 724.645 kg/m3 | 990.99 m/s and 991.34 m/s and 989.9 m/s
310.65 K | 721.069 kg/m3 and 721.953 kg/m3 | 979.62 m/s and 980 m/s and 978.47 m/s
313.15 K | 718.357 kg/m3 and 719.245 kg/m3 | 968.16 m/s and 968.63 m/s and 967.03 m/s
315.65 K | 715.636 kg/m3 and 716.525 kg/m3 | 956.8 m/s and 957.31 m/s and 955.73 m/s
318.15 K | 712.897 kg/m3 and 713.786 kg/m3 | 945.54 m/s and 946.03 m/s and 944.34 m/s
320.65 K | 710.141 kg/m3 and 711.028 kg/m3 | 934.24 m/s and 934.76 m/s and 933.01 m/s
323.15 K | 707.381 kg/m3 and 708.28 kg/m3 | 922.97 m/s and 923.46 m/s and 921.93 m/s
